Reference: article PMC10303384, “The Effect of Terbinafine and Its Ionic Salts on Certain Fungal Plant Pathogens” (Molecules, 2023)
“And” between values parts separate entries of the source, which are not always exact repeats. Identical values can stand only once. Like-named read-outs stand apart in the source and are kept apart here.

Experiments:
[1] = tested on: B. cinerea on cherry tomatoes; test: In vivo antifungal bioassay on cherry tomatoes; set-up: species or system Botrytis cinerea; conditions: 20 mg/L; for Diameter of infection (cm) 4 days: 4 days after treatment; for Diameter of infection (cm) 7 days: 7 days after treatment
[2] = tested on: Rhizoctonia solani (R. solani); test: microbe, parasite or virus in culture; format: cell-based
[3] = tested on: Botrytis cinerea (B. cinerea); test: In vitro fungicidal activity, mycelial (hyphae) growth inhibition on PDA; format: cell-based
[4] = tested on: Alternaria solani (A. solani); test: as above; format: cell-based
[5] = tested on: Valsa malicola (V. mali); test: as above; format: cell-based
[6] = tested on: Fusarium graminearum (F. graminearum); test: microbe, parasite or virus in culture; format: cell-based; conditions: for Inhibition Rate at 50 mg/L (%) F. g: mean ± SD of three replicates
[7] = tested on: Pyricularia oryzae (P. oryzae); test: microbe, parasite or virus in culture; format: cell-based; conditions: for Inhibition Rate at 50 mg/L (%) P. o: mean ± SD of three replicates
[8] = tested on: Phomopsis capsici (P. capsica); test: In vitro fungicidal activity, mycelial (hyphae) growth inhibition on PDA; format: cell-based
[9] = Surface tension of saturated aqueous solutions, Du Noüy ring method; conditions: 25 °C
Procedure: This method involved adjusting the stage positioning of the solvent container such that a platinum ring could be immersed below the liquid interface or pulled through the meniscus. […] The maximum force was recorded as the surface tension of the solvent. To ensure accuracy, the platinum ring was thoroughly cleaned between each measurement through rinsing with double-distilled water and wiping it dry. The surface tension determination was performed in quadruplicate.

[10] = tested on: Pythium aphanidermatum (P. aphanidermatum); test: In vitro fungicidal activity, mycelial (hyphae) growth inhibition on PDA; format: cell-based
[11] = Solubility classification in representative solvents (Vogel protocol); format: physicochemical; conditions: 25 °C, test amount 0.1 g; for solubility: thermodynamic from solid
Procedure: This investigation details how to determine the solubility of terbinafine and its salts, guided by the experimental protocol in Vogel’s Textbook of Practical Organic Chemistry. Based on the Snyder polarity index values of the representative solvents, each solvent was tested for its ability to dissolve the target analytes. The solubility data was classified into three categories based on the observed extent of dissolution. […] The experimental procedures were performed at 25 °C and under ambient pressure.

[12] = Solubility of saturated solutions by HPLC at 25 °C; format: physicochemical; conditions: for solubility at 15 min: thermodynamic from solid
Source text: The filtrate was then passed through a 0.22 μm nylon membrane filter and subjected to HPLC analysis. Based on Wang’s report about the chromatographic parameters, modifications to the mobile phase ratio were made. The replicability of the results was ensured by performing each measurement in triplicate.

[13] = Fusarium graminearum, F. graminearum
[14] = read-out: EC50 (μmol/L), F. graminearum
[15] = read-out: EC50 (μmol/L), P. oryzae
[16] = DMSO, organic solvent or mixture, Snyder polarity index 6.5, read-out: Solubility in DMSO
[17] = acetone, organic solvent or mixture, Snyder polarity index 5.1, read-out: Solubility in Acetone
[18] = acetonitrile, organic solvent or mixture, Snyder polarity index 6.2, read-out: Solubility in Acetonitrile
[19] = chloroform, organic solvent or mixture, Snyder polarity index 4.1, read-out: Solubility in Chloroform
[20] = ethyl acetate, organic solvent or mixture, Snyder polarity index 4.3, read-out: Solubility in Ethyl acetate
[21] = isopropanol, organic solvent or mixture, read-out: Solubility in Isopropanol
[22] = methanol, organic solvent or mixture, Snyder polarity index 6.6, read-out: Solubility in Methanol
[23] = n-hexane, organic solvent or mixture, Snyder polarity index 0.0, read-out: Solubility in n-Hexane
[24] = toluene, organic solvent or mixture, Snyder polarity index 2.3, read-out: Solubility in Toluene
[25] = water, Snyder polarity index 9.0, read-out: Solubility in Water
[26] = isopropanol, organic solvent or mixture, Table S1, read-out: Solubility, Isopropanol
[27] = n-hexane, organic solvent or mixture, Table S1, read-out: Solubility, n-Hexane
[28] = water, Table S1, read-out: Solubility, Water

COC(=O)Nc1nc2ccccc2[nH]1 [Carbendazim, reference compound]
Diameter of infection (cm) 4 days [1]: 0.85 cm
Diameter of infection (cm) 7 days [1]: 0.92 cm

COC(=O)N(OC)c1ccccc1COc1ccn(-c2ccc(Cl)cc2)n1 [Pyraclostrobin, reference compound]
EC50 ([2]; Rhizoctonia solani): 0.07 µg/mL and 190 nM
EC50 ([3]; Botrytis cinerea): 0.12 µg/mL and 310 nM
EC50 ([4]; Alternaria solani): 0.23 µg/mL and 590 nM
Diameter of infection (cm) 4 days [1]: 0.71 cm
Diameter of infection (cm) 7 days [1]: 0.92 cm
EC50 [5]: 0.79 µg/mL and 2.02 µM
EC50 [6, 13]: 1.43 µg/mL and 3.68 µM
EC50 ([7]; Pyricularia oryzae, P. oryzae): 0.6 µg/mL and 1.54 µM

CN(C/C=C/C#CC(C)(C)C)Cc1cccc2ccccc12.O=C(O)c1ccccc1O [TIS 1, (E)-N,6,6-trimethyl-N-(naphthalen-1-ylmethyl)hept-2-en-4-yn-1-aminium 2-hydroxybenzoate]
Inhibition Rate at 50 mg/L (%) R. s [2]: 84.79 ± 1.25%
EC50 ([2]; Rhizoctonia solani): 2.49 µg/mL
EC50 ([2]; read-out: EC50 (μmol/L)): 5.81 µmol/L
Inhibition Rate at 50 mg/L (%) B. c [3]: 100 ± 0%
EC50 ([3]; Botrytis cinerea): 0.14 µg/mL
EC50 ([3]; read-out: EC50 (μmol/L)): 0.32 µmol/L
Inhibition Rate at 50 mg/L (%) A. s [4]: 100 ± 0%
EC50 ([4]; Alternaria solani): 0.13 µg/mL
EC50 ([4]; read-out: EC50 (μmol/L)): 0.3 µmol/L
inhibition at 50 µg/mL ([8]; Diaporthe capsici, 50 mg/L, read-out: Inhibition Rate at 50 mg/L (%) P. c): 47 ± 1.18%
surface tension of the saturated aqueous solution [9]: 58.33 mN·m^−1
Diameter of infection (cm) 4 days [1]: 0.78 cm
Diameter of infection (cm) 7 days [1]: 1.10 cm
EC50 [5]: 2.24 µg/mL
Inhibition Rate at 50 mg/L (%) V. m [5]: 100 ± 0%
EC50 ([5]; read-out: EC50 (μmol/L)): 5.21 µmol/L
Inhibition Rate at 50 mg/L (%) F. g [6]: 100 ± 0%
EC50 [6, 13]: 0.1 µg/mL
EC50 [6, 14]: 0.23 µmol/L
inhibition at 50 µg/mL ([10]; Pythium aphanidermatum, 50 mg/L, read-out: Inhibition Rate at 50 mg/L (%) P. a): 74.61 ± 0.38%
Inhibition Rate at 50 mg/L (%) P. o [7]: 99.05 ± 0.21%
EC50 ([7]; Pyricularia oryzae, P. oryzae): 0.47 µg/mL
EC50 [7, 15]: 1.1 µmol/L
solubility [11, 16]: > 100 mg/mL
solubility [11, 17]: > 100 mg/mL
solubility [11, 18]: > 100 mg/mL
solubility [11, 19]: > 100 mg/mL
solubility [11, 20]: > 100 mg/mL
solubility [11, 21]: < 33.3 mg/mL
solubility [11, 22]: > 100 mg/mL
solubility [11, 23]: < 33.3 mg/mL
solubility [11, 24]: > 100 mg/mL
solubility [11, 25]: < 33.3 mg/mL
solubility at 15 min [12, 26]: 5.18 µM
solubility at 15 min [12, 27]: 0.502 µM
solubility at 15 min [12, 28]: 284 µM

CN(C/C=C/C#CC(C)(C)C)Cc1cccc2ccccc12.O=C(O)C1C(C(=O)O)[C@@]2(Cl)C(Cl)=C(Cl)[C@]1(Cl)C2(Cl)Cl [TIS 2, (E)-N,6,6-trimethyl-N-(naphthalen-1-ylmethyl)hept-2-en-4-yn-1-aminium (1S,4R)-3-carboxy-1,4,5,6,7,7-hexachlorobicyclo [2.2.1]hept-5-ene-2-carboxylate]
EC50 (mg/L) [2]: 3.32 mg/L
Inhibition Rate at 50 mg/L (%) R. s [2]: 80.75 ± 0.72%
EC50 ([2]; read-out: EC50): 4.88 µmol/L
Inhibition Rate at 50 mg/L (%) B. c ([3]; mean ± SD of three replicates): 100 ± 0%
EC50 (mg/L) ([3]; B. cinerea): 0.25 mg/L
EC50 ([3]; B. cinerea, read-out: EC50 (μmol/L)): 0.37 µmol/L
Inhibition Rate at 50 mg/L (%) A. s ([4]; mean ± SD of three replicates): 98.8 ± 0%
EC50 (mg/L) ([4]; A. solani): 0.18 mg/L
EC50 ([4]; A. solani, read-out: EC50 (μmol/L)): 0.27 µmol/L
Inhibition Rate at 50 mg/L (%) P. c ([8]; mean ± SD of three replicates): 43.85 ± 1.61%
surface tension of the saturated aqueous solution [9]: 62.78 mN·m^−1
Inhibition Rate at 50 mg/L (%) V. m ([5]; mean ± SD of three replicates): 100 ± 0%
EC50 (mg/L) ([5]; V. mali): 4.28 mg/L
EC50 ([5]; V. mali, read-out: EC50 (μmol/L)): 6.29 µmol/L
Inhibition Rate at 50 mg/L (%) F. g [6]: 100 ± 0%
EC50 (mg/L) ([6]; F. graminearum): 0.16 mg/L
EC50 ([6]; F. graminearum, read-out: EC50): 0.24 µmol/L
Inhibition Rate at 50 mg/L (%) P. a ([10]; mean ± SD of three replicates): 69.65 ± 1.7%
Inhibition Rate at 50 mg/L (%) P. o [7]: 96.09 ± 0.36%
EC50 (mg/L) ([7]; P. oryzae): 0.88 mg/L
EC50 ([7]; P. oryzae, read-out: EC50): 1.29 µmol/L
Solubility in n-Hexane ([11]; Snyder polarity index 0.0): − (“−” means insoluble in a 3 mL solvent, poor solubility)
Solubility in Toluene ([11]; Snyder polarity index 2.3): − (“−” means insoluble in a 3 mL solvent, poor solubility)
Solubility in Chloroform ([11]; Snyder polarity index 4.1): − (“−” means insoluble in a 3 mL solvent, poor solubility)
Solubility in Ethyl acetate ([11]; Snyder polarity index 4.3): − (“−” means insoluble in a 3 mL solvent, poor solubility)
Solubility in Isopropanol ([11]; Snyder polarity index 4.3): − (“−” means insoluble in a 3 mL solvent, poor solubility)
Solubility in Acetone ([11]; Snyder polarity index 5.1): − (“−” means insoluble in a 3 mL solvent, poor solubility)
Solubility in Acetonitrile ([11]; Snyder polarity index 6.2): − (“−” means insoluble in a 3 mL solvent, poor solubility)
Solubility in DMSO ([11]; Snyder polarity index 6.5): + (“+” means soluble in a 1 mL solvent, good solubility)
Solubility in Methanol ([11]; Snyder polarity index 6.6): − (“−” means insoluble in a 3 mL solvent, poor solubility)
Solubility in Water ([11]; Snyder polarity index 9.0): − (“−” means insoluble in a 3 mL solvent, poor solubility)
Solubility, Acetone ([12]; Table S1): 8.23 µM
Solubility, Acetonitrile ([12]; Table S1): 0.155 µM
Solubility, Chloroform ([12]; Table S1): 1.39 µM
Solubility, Ethyl acetate ([12]; Table S1): 0.456 µM
Solubility, Isopropanol ([12]; Table S1): 0.0703 µM
Solubility, Methanol ([12]; Table S1): 0.0554 µM
Solubility, Toluene ([12]; Table S1): 0.366 µM
Solubility, Water ([12]; Table S1): 5.62 µM
Solubility, n-Hexane ([12]; Table S1): 0.0221 µM

CN(C/C=C/C#CC(C)(C)C)Cc1cccc2ccccc12.O=C(O)/C=C\C(=O)O [TIS 3, (E)-N,6,6-trimethyl-N-(naphthalen-1-ylmethyl)hept-2-en-4-yn-1-aminium (Z)-3-carboxyacrylate]
better activity than terbinafine [2]: 24%
Inhibition Rate at 50 mg/L (%) R. s [2]: 83.4 ± 0.35%
EC50 ([2]; Rhizoctonia solani): 1.84 µg/mL
EC50 ([2]; read-out: EC50 (μmol/L)): 4.51 µmol/L
Inhibition Rate at 50 mg/L (%) B. c [3]: 100 ± 0%
EC50 ([3]; Botrytis cinerea): 0.13 µg/mL
Inhibition Rate at 50 mg/L (%) A. s [4]: 100 ± 0%
EC50 ([4]; Alternaria solani): 0.15 µg/mL
EC50 ([4]; read-out: EC50 (μmol/L)): 0.36 µmol/L
Inhibition Rate at 50 mg/L (%) P. c [8]: 33.16 ± 2.52%
surface tension of the saturated aqueous solution [9]: 61.48 mN·m^−1
Diameter of infection (cm) 4 days [1]: 0.82 cm
Diameter of infection (cm) 7 days [1]: 1.02 cm
EC50 [5]: 2.03 µg/mL
Inhibition Rate at 50 mg/L (%) V. m [5]: 100 ± 0%
EC50 ([5]; read-out: EC50 (μmol/L)): 4.98 µmol/L
Inhibition Rate at 50 mg/L (%) F. g [6]: 100 ± 0%
EC50 [6, 13]: 0.1 µg/mL
EC50 [6, 14]: 0.24 µmol/L
Inhibition Rate at 50 mg/L (%) P. a [10]: 69.54 ± 0%
Inhibition Rate at 50 mg/L (%) P. o [7]: 99.29 ± 0%
EC50 ([7]; Pyricularia oryzae, P. oryzae): 0.58 µg/mL
EC50 [7, 15]: 1.41 µmol/L
solubility [11, 16]: > 100 mg/mL
solubility [11, 17]: < 33.3 mg/mL
solubility [11, 18]: < 33.3 mg/mL
solubility [11, 19]: > 100 mg/mL
solubility [11, 20]: < 33.3 mg/mL
solubility [11, 21]: < 33.3 mg/mL
solubility [11, 22]: > 100 mg/mL
solubility [11, 23]: < 33.3 mg/mL
solubility [11, 24]: < 33.3 mg/mL
solubility [11, 25]: < 33.3 mg/mL
solubility at 15 min ([12]; acetone, organic solvent or mixture, Table S1, read-out: Solubility, Acetone): 3.76 µM
solubility at 15 min ([12]; acetonitrile, organic solvent or mixture, Table S1, read-out: Solubility, Acetonitrile): 1490 µM
solubility at 15 min ([12]; ethyl acetate, organic solvent or mixture, Table S1, read-out: Solubility, Ethyl acetate): 485 µM
solubility at 15 min [12, 26]: 3.06 µM
solubility at 15 min [12, 27]: 0.234 µM
solubility at 15 min ([12]; toluene, organic solvent or mixture, Table S1, read-out: Solubility, Toluene): 42.1 µM
solubility at 15 min [12, 28]: 616 µM
